# Laboratory results from US12066445B2, “System and method for cell levitation and monitoring” (THE BRIGHAM AND WOMEN'S HOSPITAL, INC., priority 2014, dated 2024).
# Structures can show the parent of a compound that is named as a salt.
# Tests used:
# [1] = system: RBCs; assay: Levitation of RBCs after photolysis of caged ATP; assay type: cell-based; conditions: extracellular ATP 0 to close to 10 mM after photolysis, 40 mM Gd+, FIG. 4c
# Excerpt: Consistent with this possibility that UV-induced ROS increased the paramagnetic signature of RBCs, in areas with increased cell density, RBCs formed distinct aggregates, shown as the red circle in FIG. 4b, likely due to weak paramagnetic attraction between ROS-containing RBCs. To test this hypothesis, a burst of extracellular ATP to dissociate 2-3 DPG (2,3-diphosphoglycerate) from hemoglobin was used, a process that also transitions RBCs from diamagnetic to weak paramagnetic cells. Isolated RBCs were washed and resuspended in HBSS^++ containing 40 mM Gd+ and 10 mM caged ATP (Life Technologies). RBCs were loaded into the capillary, placed between the magnets, and allowed to focus. Next, a region of 60×900 μm located about 70 μm above the levitating RBCs was selected and illuminated by a […] for 1 second at 100% intensity. The un-caged ATP, released into the suspension increased the extracellular concentration of ATP from 0 to nearly 10 mM. Cells were recorded using Slidebook 5.5. Following photolysis, caged-ATP became ATP, effectively increasing the concentration of biologically-active, extracellular ATP from 0 to close to 10 mM. […]
# [2] = system: MDA breast cancer cells
# Experimental: FIG. 12b details the real-time observation of a HCl-applied single cell in which a viability assay was also conducted using Calcein (green fluorescent) for live cell and Propidium Iodine (red fluorescent) for dead cell. Fluorescent images and bright field images were overlapped each other to compose the micrographs at different time point.
# [3] = system: E. coli; assay: Magnetic levitation profile of E. coli after antibiotic treatment; assay type: cell-based; conditions: for change of levitation heights and cellular magnetic profiles versus untreated control: E. coli treated two hours, 1 mg/mL, FIG. 21
# Excerpt: As the bacteria respond to the stimuli and antibiotics, their density are altered. This directly reflects on their levitation heights.
# With forward reference to FIG. 21, differences are illustrated in the observed magnetic levitation profiles of E. coli cells after different types of antibiotic treatment. […] The magnetic levitation profile of each of these antibiotics are compared to a control (i.e., untreated E. coli cells) in FIGS. 21a, 21b, and 21c, respectively.
# (§1) In the examples above, to load samples into a microcapillary tube, microcapillaries were simply dipped into the sample vials, and sample filled into the capillary due to capillary forces. For each experiment, new microcapillary was used. Further, unless otherwise stated, cells were resuspended in 200 μL of 40 mM Gadolinium solution and loaded in 1.0×1.0 mm square microcapillary tubes (wall thickness 0.2 mm) by superficial tension action. Critoseal™ was inserted into either end of the microcapillary to prevent cells from drifting during analysis. The capillary was then loaded into a slot between the magnets and cells were imaged using either QImaging Emc^2 EMCCD camera on an Olympus BX62 microscope or a Qimaging EXi CCD camera on a Zeiss Axioscope microscope. For high-resolution images, a fluorescence microscope leveled on its side was perfectly horizontally placed, and used a mirror-free magnetic levitation setup. The images were analyzed with Slidebook 5.5. (3i, Denver, CO), ImageProPlus 7 (Media Cybernetics, Rockville, MD), and iVison 4.7 (Biovision, Exton PA).
# [4] = system: multi-drug resistant E. coli; assay: Magnetic levitation profile of multi-drug resistant E. coli after antibiotic treatment; assay type: cell-based; conditions: multi-drug resistant E. coli clinical isolate, 1 mg/mL, two hours, FIG. 22
# Experimental: as §1
# [5] = system: multi-drug resistant E. coli; conditions: cited from earlier work
# [6] = system: sickle RBCs; assay: Levitation of healthy and sickle RBCs after sodium metabisulfite-induced dehydration; assay type: cell-based, human; conditions: 10 μM for 10 minutes at room temperature, images after 10 minutes of levitation
# Experimental: RBCs isolated from healthy and sickle cell disease patients were washed three times and incubated with 10 μM sodium metabisulfite for 10 minutes at room temperature. Cells were levitated as described above and images were recorded after 10 minutes. To increase the contrast of the cells against the background, images were filtered using an edge detection algorithm (Roberts).
# [7] = system: yeast cells; assay: Viability and magnetic levitation of yeast cells after drug treatment; assay type: cell-based; conditions: for levitation heights, magnetic properties and intrinsic magnetic signatures of yeast cells: 100 μM for 24 hours, 15 minutes of magnetic levitation, FIG. 14b; for viability of yeast cells (optical density): 100 μM, 24 hours, FIG. 14a
# Experimental: Looking at FIG. 14, the magnetic levitation and characteristics of yeast cells are illustrated that have either not been exposed or have been exposed to various drug treatments for some duration of time. FIG. 14a graphs the viability of yeast cells after different drug treatments (i.e., no drug treatment/control, 100 μM cantharidin, or 100 μM fluconazole) for 24 hours. […] FIG. 14b provides micrographs illustrating how, after 15 minutes of magnetic levitation, the levitation heights, magnetic properties and intrinsic magnetic signatures of yeast cells are altered after drug treatment with 100 μM cantharidin and 100 μM fluconazole for 24 hours.
# Turning now to FIG. 15, this figure provides data relating to the observed drug responses and observed changes in magnetic profile of cells. […] FIG. 15d provides various micrographs of cells treated with different concentration of drug (fluconazole), the treatment concentration being listed above each micrograph. […] It is further noted that these changes can be monitored with the magnetic levitation system at the single-cell level.
# as §1
# [8] = system: human PMNs; assay: Static levitation of activated and GSH-treated PMNs; assay type: cell-based
# Experimental: Freshly isolated PMNs were activated by incubating them either with buffer (resting PMN), GSH-ME (GSH-treated PMN), or 10 nM PMA (activated PMN) for 5 minutes, washing twice, mixing, and resuspending them in 35 mM Gd+ solution. Prior to treatments, cells were labeled either with Cell Tracker Green (activated PMN) or Cell Mask Deep Red (GSH-treated PMN).
# The response of human PMNs during the activation phase of phagocytosis was studied by incubating PMNs with phorbol 12-myristate 13-acetate (PMA, 10 nM) for 10 minutes. As a control, PMNs were left in buffer for 10 minutes. Cells were then washed, fluorescently labeled, mixed together, and loaded into the magnetic levitation setup.
# [formula] […] The same samples were simultaneously examined by flow cytometry for changes in forward and side-scatter properties of PMNs associated with PMA activation, shown in FIG. 3d.
# To further understand the effect of intracellular ROS on the final position of levitating cells, cell permeable glutathione (GSH), an ROS scavenger was used.
molecule,measurement,setting,value
Nc1ncnc2c1ncn2[C@@H]1O[C@H](COP(=O)(O)OP(=O)(O)OP(=O)(O)O)[C@@H](O)[C@H]1O [ATP],changes in magnetic properties and levitation of RBCs,[1],loss of levitation
"Cl [HCl, hydrochloric acid]",levitation height z of treated cells (bottom of the channel),"[2]; 40 minutes of exposure to 100 mM HCl, FIG. 12a",−500 μm
same,viability assay (Calcein / Propidium Iodine) of a single cell,"[2]; HCl-applied single cell, over 700 seconds, FIG. 12b",dying cell
CC1(C)S[C@@H]2[C@H](NC(=O)[C@H](N)c3ccccc3)C(=O)N2[C@H]1C(=O)O [ampicillin],change of levitation heights and cellular magnetic profiles versus untreated control,[3],change the levitation heights and cellular magnetic profiles in a different manner
same,differences between untreated and treated bacteria in magnetic levitation heights,"[3]; E. coli, FIG. 13",significant differences
same,change in levitation heights and magnetic levitation profiles,[4],no significant change
same,resistance or susceptibility of the clinical isolate,[5],resistant
O=S([O-])S(=O)(=O)[O-].[Na+].[Na+] [sodium metabisulfite],density of a subpopulation of sickle RBCs after treatment,[6],significantly denser than healthy RBCs
OC(Cn1cncn1)(Cn1cncn1)c1ccc(F)cc1F [fluconazole],"levitation heights, magnetic properties and intrinsic magnetic signatures of yeast cells",[7],altered
same,viability of yeast cells (optical density),[7],Different viabilities are observed
same,cellular magnetic profiles and single-cell densities,"[7]; 25, 50 or 100 μM, FIG. 15",cellular magnetic profiles and densities change
"CCCCCCCCCCCCCC(=O)O[C@@H]1[C@@H](C)[C@@]2(O)[C@@H](C=C(CO)C[C@]3(O)C(=O)C(C)=C[C@@H]23)[C@@H]2C(C)(C)[C@]12OC(C)=O [PMA, phorbol 12-myristate 13-acetate]","size, shape, optical density, magnetic and mass density signatures versus control PMNs","[8]; 10 nM for 10 minutes, FIG. 3a",distinct differences
same,roundness of cells versus buffer-treated PMNs,"[8]; PMA-activated PMNs, FIG. 3c",significant difference
gentamicin,change of levitation heights and cellular magnetic profiles versus untreated control,[3],change the levitation heights and cellular magnetic profiles in a different manner
same,change in levitation heights and magnetic levitation profiles,[4],noticeable change
same,resistance or susceptibility of the clinical isolate,[5],susceptible
C[C@@]12C(=O)OC(=O)[C@]1(C)[C@H]1CC[C@@H]2O1 [cantharidin],"levitation heights, magnetic properties and intrinsic magnetic signatures of yeast cells",[7],altered
same,viability of yeast cells (optical density),[7],Different viabilities are observed
O=C(O)c1cn(C2CC2)c2cc(N3CCNCC3)c(F)cc2c1=O [ciprofloxacin],change of levitation heights and cellular magnetic profiles versus untreated control,[3],change the levitation heights and cellular magnetic profiles in a different manner
"CCOC(=O)CNC(=O)[C@H](CS)NC(=O)CC[C@H](N)C(=O)O [GSH, Glutathione reduced ethyl ester]",final levitation position of treated PMNs,"[8]; 35 mM Gd+ solution, FIG. 3e",equilibrated closer to resting PMNs
